Experimental data as given in article PMC4876673, “Antitrypanosomal activity of 5-nitro-2-aminothiazole-based compounds” (European Journal of Medicinal Chemistry, 2016).
Where two headings read alike, the source gives them in different places.

Assays:
[1] = test system: T.b. rhodesiense, strain STIB 900 trypomastigotes; test: In vitro activity against T. b. rhodesiense, strain STIB 900 trypomastigotes; assay type: cell-based, Trypanosoma brucei rhodesiense; details: for IC50: Trypanosoma brucei, read-out: T.b.r. IC50; for SI (T.b.r.): ratio IC50 in L6 cells/IC50 in T.b. rhodesiense
Description: (§1) Compounds in Table 1 were screened for antiparasitic activity against three trypanosomatids: T. cruzi, T. b. rhodesiense and Leishmania donovani. The concentration of compound that inhibits parasite growth by 50% (IC50) was calculated from dose response curves for each parasite (Table 1). In addition, compounds were tested for toxicity in L6 rat skeletal myoblasts, used as host cells for T. cruzi amastigotes, in order to calculate a selectivity index for each parasite (SI = IC50L6/IC50parasite) (Table 1).
(§2) In vitro activity against T. cruzi, T. b. rhodesiense, L. donovani and cytotoxicity assessment using L6 cells (rat skeletal myoblasts) was determined using a 96-well plate format as previously described. Data were analyzed with the graphic program Softmax Pro (Molecular Devices, Sunnyvale, CA, USA), which calculated IC50 values by linear regression from the sigmoidal dose inhibition curves.

[2] = test system: L6 cells (rat skeletal myoblasts); test: Cytotoxicity in the host L6 cells; assay type: cell-based; details: read-out: Cyt. L6 IC50
Description: as §1, §2

[3] = test system: T. cruzi, strain Tulahuen C4 amastigotes; test: In vitro activity against T. cruzi amastigotes in infected L6 cells; assay type: cell-based, Trypanosoma cruzi; details: for IC50: Trypanosoma cruzi, T. cruzi Tulahuen C4 amastigotes in L6 cells, read-out: T. c. IC50; for SI (T. c.): ratio IC50 in L6 cells/IC50 in T. cruzi; for Bnz/comp: ratio of T. cruzi IC50 of benznidazole to that of the compound
Description: (§3) In vitro activity against T. cruzi, T. b. rhodesiense, L. donovani and cytotoxicity assessment using L6 cells (rat skeletal myoblasts) was determined using a 96-well plate format as previously described [38]. Data were analyzed with the graphic program Softmax Pro (Molecular Devices, Sunnyvale, CA, USA), which calculated IC50 values by linear regression from the sigmoidal dose inhibition curves.

[4] = test system: L. donovani axenic, strain MHOM-ET-67/L82 amastigotes; test: In vitro activity against L. donovani axenic amastigotes; assay type: cell-based, Leishmania donovani; details: for IC50: Leishmania donovani, L. donovani axenic amastigotes MHOM-ET-67/L82, read-out: L.d. IC50; for SI (L.d.): ratio IC50 in L6 cells/IC50 in L. donovani; for activity class against L. donovani: L. donovani amastigotes
Description: as §3

T. b. brucei wild type = test: T. brucei brucei antiproliferating assay, wild type bloodstream form; assay type: cell-based; details: Trypanosoma brucei, 72 h
Description: (§4) To further determine whether NTR plays a role in metabolizing the substrates within the parasite, the above subset of compounds were phenotypically screened against BSF T. b. brucei expressing wild type or elevated levels of TbNTR.
(§5) Where appropriate, induction of the TbNTR was carried out by adding tetracycline (1 μg/mL). After incubation for 3 days at 37 °C, resazurin (2.5 μg per well) was added to each well and the plates incubated for a further 8 h. The cell density of each culture was determined as described before [26] and the IC50 established.

[5] = test system: TbNTR overexpressing T. b. brucei; test: microbe, parasite or virus in culture; assay type: cell-based, Trypanosoma brucei brucei; details: for Ratio –tet/+tet: IC50 −tet / IC50 +tet; for IC50: Trypanosoma brucei
Description: as §4, §5

[6] = T.b. rhodesiense STIB 900 trypomastigotes
[7] = read-out: IC50 value T.b. brucei Wild type, BSF, wild type, 3 days
[8] = read-out: IC50 value T.b. brucei TbNTR (+tet)
[9] = read-out: IC50 value T.b. brucei TbNTR (−tet)

| Structure (SMILES) | IC50 [1, 6] [µM] | SI (T.b.r.) [1] | IC50 [2] [µM] | melting point | IC50 [3] [µM] | SI (T. c.) [3] | Bnz/comp [3] | IC50 [4] [µM] | SI (L.d.) [4] | IC50 (T. b. brucei wild type; [7]) [µM] | Ratio –tet/+tet [5] | IC50 [5, 8] [µM] | IC50 [5, 9] [µM] | fold less potent against T. cruzi than the corresponding 3-nitrotriazole-based analog ([3]; comparison with analogs of ref 24) | activity class against L. donovani [4] | IC50 [1] [µM] | IC50 (T. b. brucei wild type; BSF, wild type, 3 days, read-out: IC50 value T.b. brucei Wild type) [µM] |
| --- | --- | --- | --- | --- | --- | --- | --- | --- | --- | --- | --- | --- | --- | --- | --- | --- | --- |
| Cc1ccc(N2CCN(CC(=O)Nc3ncc([N+](=O)[O-])s3)CC2)cc1 [Compound 2, N-(5-nitrothiazol-2-yl)-2-(4-(p-tolyl)piperazin-1-yl)acetamide] | 14.4 | 8.8 | 126 | 160 to 161 °C (dec.) | 9.31 | 14 | 0.2 | 41.4 | 3 |  |  |  |  |  |  |  |  |
| O=C(CN1CCN(c2ccc(C(F)(F)F)cc2)CC1)Nc1ncc([N+](=O)[O-])s1 [Compound 3, N-(5-nitrothiazol-2-yl)-2-(4-(4-(trifluoromethyl)phenyl)piperazin-1-yl)acetamide] | 8.42 | 5.6 | 47.1 | 173 to 175 °C | 1.73 | 27 | 1.3 | 12.7 | 3.7 | 1.02 ± 0.045 | 2.8 | 0.526 ± 0.024 | 1.46 ± 0.113 |  |  |  |  |
| COc1ccc(N2CCN(CC(=O)Nc3ncc([N+](=O)[O-])s3)CC2)cc1 [Compound 4, 2-(4-(4-methoxyphenyl)piperazin-1-yl)-N-(5-nitrothiazol-2-yl)acetamide] | 13.8 | 10 | 143 | 154 to 156 °C (dec.) | 3.06 |  | 0.7 | 68.2 | 2.1 |  |  |  |  |  |  |  |  |
| O=C(CN1CCN(c2ccc(Cl)c(Cl)c2)CC1)Nc1ncc([N+](=O)[O-])s1 [Compound 5, 2-(4-(3,4-dichlorophenyl)piperazin-1-yl)-N-(5-nitrothiazol-2-yl)acetamide] | 10.8 | 4.2 | 45.7 | 169 to 171 °C | 1.53 | 30 | 1.4 | 7.55 | 6.1 | 1.36 ± 0.091 | 2.6 | 0.747 ± 0.075 | 1.96 ± 0.101 |  |  |  |  |
| O=C(CN1CCN(C(c2ccccc2)c2ccc(Cl)cc2)CC1)Nc1ncc([N+](=O)[O-])s1 (stereo not shown) [Compound 6, 2-(4-((4-chlorophenyl)(phenyl)methyl)piperazin-1-yl)-N-(5-nitrothiazol-2-yl)acetamide] | 17.4 | <1 | 12.9 | 92 to 95 °C | 0.571 | 23 | 3.8 | 3.39 | 3.8 | 1.47 ± 0.104 | 2.6 | 0.636 ± 0.022 | 1.64 ± 0.069 | about 8 fold | moderately active (between 1.0 and 6.0 μM) |  |  |
| O=C(CN1CCN(c2ccccn2)CC1)Nc1ncc([N+](=O)[O-])s1 [Compound 7, N-(5-nitrothiazol-2-yl)-2-(4-(pyridin-2-yl)piperazin-1-yl)acetamide] | 13.3 | 2.2 | 29.6 | 175 to 180 °C (dec.) | 4.97 | 5.9 | 0.4 | 64.9 | <1 |  |  |  |  |  |  |  |  |
| O=C(Nc1ncc([N+](=O)[O-])s1)c1ccc(-c2ccccc2)cc1 [Compound 8, N-(5-nitrothiazol-2-yl)-[1,1′-biphenyl]-4-carboxamide] | 14.3 | <1 | 6.57 | > 230 °C | 2.52 | 2.6 | 0.9 | 104 | <1 | 1.61 ± 0.396 | 2.1 | 2.18 ± 0.085 | 4.59 ± 0.149 |  |  |  |  |
| O=C(COc1cccc(-c2ccccc2)c1)Nc1ncc([N+](=O)[O-])s1 [Compound 9, 2-([1,1′-biphenyl]-3-yloxy)-N-(5-nitrothiazol-2-yl)acetamide] | 28.7 | 1.7 | 49.4 | 148 to 150 °C | 22.8 | 2.2 | 0.1 | 4.27 | 12 |  |  |  |  |  | moderately active (between 1.0 and 6.0 μM) |  |  |
| O=C(COc1cccc(Oc2ccccc2)c1)Nc1ncc([N+](=O)[O-])s1 [Compound 10, N-(5-nitrothiazol-2-yl)-2-(3-phenoxyphenoxy)acetamide] | 31 | 1.8 | 54.9 | 151 to 153 °C | 34.6 | 1.6 | 0.1 | 5.4 | 10 |  |  |  |  |  | moderately active (between 1.0 and 6.0 μM) |  |  |
| O=C(COc1ccc(-c2ccccc2)cc1)Nc1ncc([N+](=O)[O-])s1 [Compound 11, 2-([1,1′-biphenyl]-4-yloxy)-N-(5-nitrothiazol-2-yl)acetamide] | 40.8 | 1.3 | 54.9 | 196 to 198 °C | 18.4 | 3 | 0.1 | 10.5 | 5.2 | 3.75 ± 0.383 | 1.5 | 2.2 ± 0.1 | 3.25 ± 0.142 |  |  |  |  |
| O=C(COc1ccc(Oc2ccccc2)cc1)Nc1ncc([N+](=O)[O-])s1 [Compound 12, N-(5-nitrothiazol-2-yl)-2-(4-phenoxyphenoxy)acetamide] | 28.4 |  | 52.7 |  | 32.6 |  | 0.1 | 5.4 |  |  |  |  |  |  | moderately active (between 1.0 and 6.0 μM) |  |  |
| Nc1nc(N)nc(Nc2ccc([As]3SCC(CO)S3)cc2)n1 (stereo not shown) [Melars., Melarsoprol, reference compound] |  |  |  |  |  |  |  |  |  |  |  |  |  |  |  | 0.009 ± 0.001 |  |
| CC1CS(=O)(=O)CCN1/N=C/c1ccc([N+](=O)[O-])o1 (stereo not shown) [nfx, nifurtimox, reference compound] |  |  |  |  |  |  |  |  |  |  | 7.3 | 0.869 ± 0.046 | 6.36 ± 0.119 |  |  |  | 3.98 ± 0.15 |
